Reference: publication PMC12040169 (PLOS Biology, 2025)

Assay: in vitro
Conditions: human, hela cells, % viability

Row | Compound | viability at 28.5 h, 10 µM [%]
1 | COc1cccc([C@H]2CN(C(=O)c3ccccc3)[C@@H]3CCN(Cc4cccs4)C[C@H]23)c1 [CBK285609] | 102
2 | O=C1NCC2(C/C=C/CCOc3ccccc31)CCNCC2 [CBK292178] | 104
3 | O=[N+]([O-])c1ccc(N2CCN(S(=O)(=O)Cc3ccccc3)CC2)cc1N1CCN(Cc2ccccc2)CC1 [CBK264951] | 101
4 | Nc1c(Cl)cc(NC(=O)CCCC(=O)O)cc1Cl [CBK263957] | 91
5 | O=C(CSc1nc(-c2ccco2)cc(C(F)(F)F)n1)NCc1ccco1 [CBK266091] | 95.1
6 | CS(=O)(=O)N1CC2(CCN(Cc3ccccc3)CC2)c2ccccc21 [CBK084003] | 89.9
7 | CCOC(=O)c1c(N)sc(C(=O)Nc2cccc([N+](=O)[O-])c2)c1C [CBK066829] | 91.2
8 | COC(=O)c1ccsc1NC(=O)CN1CCNCC1 [CBK057080] | 88.5
9 | Cc1nnc(Sc2ccc([N+](=O)[O-])cc2Cl)n1Cc1ccccc1 [CBK269694] | 102
10 | O=C(CSc1nc2ccccc2[nH]1)Nc1ccc(OC(F)(F)F)cc1 [CBK269711] | 104
11 | O=C(CCC(=O)N1CCC2(CC1)CC(=O)c1ccccc1O2)NCC1CCCO1 (stereo not drawn) [CBK156525] | 86.2
12 | Clc1cc2nc(SCCc3cnccn3)c(N3CCCC3)nc2cc1Cl [CBK103700] | 93.1
13 | O=C(NCC1(O)CCSCC1)c1cc2ccccc2[nH]1 [CBK305199] | 94.9
14 | CC(C)N1CCC2(C/C=C/CNC(=O)c3ccccc3OCCNC2=O)CC1 [CBK292094] | 98.7
15 | O=C1c2ccccc2C(=O)N1CCCN1CCN(CCCN2C(=O)c3ccccc3C2=O)CC1 [CBK260963] | 91.6
16 | O=C(CSc1ncnc2ccccc12)N(Cc1ccccc1F)C1CC1 [CBK295610] | 92.1
17 | COCCCNC(=S)Nc1ccc(N2CCOCC2)c2nonc12 [CBK266947] | 88.8
18 | O=c1[nH]c2ccccc2n1CCCN1CCC(Oc2cncc(OCC3COc4ccccc4O3)n2)C1 (stereo not drawn) [CBK084380] | 94.4
19 | O=C(NNC(=S)NCC1CCCO1)c1cccnc1 (stereo not drawn) [CBK266842] | 97.5
20 | C[C@]12CN(CC3CC=CCC3)C[C@H]1C(=O)Nc1ccccc1C(=O)N2 (stereo partly drawn) [CBK284738] | 96.6
21 | Cc1ccc(-c2cc3ccccn3c2C(=O)CSc2nncn2C)cc1 [CBK269580] | 83.5

Row | Compound | viability at 28.5 h, 10 µM [%]
22 | Cc1ccc(N2NC(=O)/C(=C/c3ccc(-c4ccc5c(c4)C(=O)NC5=O)o3)C2=O)cc1C [CBK262963] | 81.6
23 | COc1ccc(N(CC(O)CN2CCOCC2)S(=O)(=O)c2ccccc2)cc1 (stereo not drawn) [CBK263589] | 84.5
24 | COCCCn1cnnc1C(C)NC(=O)N(C)Cc1nccs1 (stereo not drawn) [CBK306702] | 111
25 | NC(=O)C1CCN(C(=O)CSc2nc3ccccc3s2)CC1 [CBK293953] | 95.2
26 | C[C@H]1[C@@H]2[C@@H](O)C([C@H](C)C(=O)N3CCCC3)CC[C@@]2(C)CC[C@@H]1NC(=O)c1ccccc1 (stereo partly drawn) [CBK289441] | 106
27 | COc1ccc(CCNC(=O)CCCc2cn(C)c3ccccc23)cc1OC [CBK061740] | 100
28 | CCOC(=O)CCSc1c(CC)c(C)nc2ccccc12 [CBK153457T] | 93.5
29 | CC(=O)N1CCC[C@H]2NC(=O)CNC(=O)C3(C/C=C/C[C@H]21)CCN(CC(N)=O)CC3 [CBK292135] | 84.4
30 | COc1ccc2[nH]c(NCCCO)nc2c1 [CBK264155] | 91.2
31 | O=C(NCCn1cccn1)N1CCC(Cc2ccc(F)cc2)CC1 [CBK304381] | 91.7
32 | O=C(NC1CCN(Cc2ccccc2)C1)c1ccc(F)cc1 (stereo not drawn) [CBK283044] | 97.8
33 | O=C(N/N=C\c1ccccc1O)c1nc([N+](=O)[O-])n[nH]1 [CBK261475] | 99.8
34 | O=C1NCCCCC1N1CCS(=O)(=O)CC1 (stereo not drawn) [CBK017083] | 99.2
35 | O=C(c1cccc(C(F)(F)F)c1)N1CCN(C(=O)c2ccc3c(c2)CCC3)CC1 [CBK298300] | 91.5
36 | COc1ccc(C(=O)N2CCC3(CCN(Cc4c(F)cccc4F)C3)C2)cc1OC (stereo not drawn) [CBK132152] | 92.8
37 | Cc1ccc(S(=O)(=O)NC2=NCN(CCOC(=O)c3ccc([N+](=O)[O-])cc3)CN2)cc1 [CBK265235] | 92.8
38 | Oc1ccc(/C=N/c2ccc(O)c(-c3nc4ccccc4s3)c2)cc1O [CBK262473] | 98.9
39 | O=S(=O)(NCc1ccccc1)c1cc(S(=O)(=O)c2ccc(Cl)cc2)ccc1Cl [CBK263207] | 109
40 | Cc1c(C(=O)N(C)Cc2cc3ccccc3o2)nnn1C1CCNCC1 [CBK304307C] | 96.4
41 | Cc1ccnc(N2CCOC3(CCCC3)C2)n1 [CBK304794] | 93.1
42 | CC(C)(C)C(=O)NC(=S)NNC(=O)c1ccncc1 [CBK269304] | 90.6

Row | Compound | viability at 28.5 h, 10 µM [%]
43 | CCOc1ccc(OC(=O)c2ccc(OC(F)(F)F)cc2)cc1 [CBK149207] | 95.8
44 | Cc1ccc(C)c(OCCNCc2ccco2)c1Cl [CBK269718C] | 98.3
45 | NS(=O)(=O)c1ccc(NC(=O)CCCN2C(=O)/C(=C/c3ccc(Cl)cc3)SC2=S)cc1 [CBK261302] | 87.9
46 | CCOC(=O)CCC(=O)n1c2ccccc2c2ccccc21 [CBK001170] | 67.2
47 | CN(Cc1ccccc1)Cc1ccccc1O [CBK261879] | 92.4
48 | Cc1ccc(C2=CCN(CC(=O)N3CCc4ccccc43)CC2)o1 [CBK283918] | 88.1
49 | O=C(COc1ccccc1)N1CCN(Cc2ccncc2)CC1 [CBK072595] | 94.6
50 | O=C1Nc2ccccc2Oc2ccc(S(=O)(=O)N3CCOCC3)cc21 [CBK269807] | 75.5
51 | CN1C[C@@H](NC(=O)NCc2ccccc2)C[C@H]1c1nc(-c2cncnc2)no1 [CBK288878] | 108
52 | CC(C)(C)c1ccc(C(O)CN2CCC(O)(c3ccc4c(c3)OCO4)CC2)cc1 (stereo not drawn) [CBK286336] | 89.3
53 | CN1CCN(c2cc(-c3cccc4cccnc34)nc3ccnn23)CC1 [CBK037013] | 90.8
54 | CCOC(=O)Cn1c(CN2CCCCC2C)nc2c1c(=O)n(C)c(=O)n2C (stereo not drawn) [CBK269382] | 95.1
55 | O=C(NCC(O)c1ccccc1)Nc1ccccc1 (stereo not drawn) [CBK057227] | 95.2
56 | Cc1ccc(C(=O)O)cc1NC(=O)c1cccc(C(=O)Nc2cc(C(=O)O)ccc2C)c1 [CBK262797] | 97.5
57 | COc1cccc(CNc2nccnc2-c2ccsc2)c1OC [CBK037543] | 107
58 | O=C(COc1ccc2ccccc2c1)N1CCN(S(=O)(=O)c2ccccc2[N+](=O)[O-])CC1 [CBK264271] | 91.8
59 | Cc1cccc(-c2ncc(C(=O)NCc3csc4ccc(Cl)cc34)cc2-c2ccncc2)c1 [CBK036770] | 89.6
60 | Cn1c(SCC(=O)Nc2ccc(F)cc2)nnc1-c1cccnc1 [CBK267035] | 94.7
61 | COc1ccc2c(c1)C(=O)CC1(CCN(C(=O)/C=C/c3ccc(C)cc3)CC1)O2 [CBK156438] | 98.3
62 | C1=CC2N=C(SCc3ccccc3)OC2C=C1 (stereo not drawn) [CBK021412] | 92.6
63 | N#Cc1ccc(CNC(=O)c2ccc3nc[nH]c3c2)cc1 [CBK153332] | 95.1
